The values that follow are results of earlier work, collected in patent US20080095814A1, “Compositions Having a High Antiviral and Antibacterial Efficacy” (THE DIAL CORPORATION, priority 2004, published 2008).

The data set relates to rhinoviral infections. Conditions: subjects who used iodine products.

Take `II` [iodine]: the “colds in users versus placebo users” value was “significantly fewer colds than placebo users”.
